# Measured values from paper doi:10.1101/466938v1, “The distinct biochemical property enables thymidylate kinase as a drug target and participates in pyrimidine drug sensitivity in Candida albicans” (biorxiv, 2018).
# Like-named read-outs stand apart in the source and are kept apart here.
# How the values were obtained:
# Experiment in all cases: microbe, parasite or virus in culture
# Set-up in all cases: species or system Candida albicans strains; Sensititre YeastOne SYO-09 colorimetric microdilution, visual MIC at >=50% growth inhibition
# [1] = tested on: T1, Candida albicans ATCC90028; conditions: ATCC90028, 24 h
# T1 construct: ATCC 90028
# Experimental: (§1) Minimum inhibitory concentrations (MICs) of 5-FUrd were determined by broth microdilution method in accordance with the guidelines in Clinical and Laboratory Standards Institute (CLSI) document M27[25], using RPMI 1640 medium containing 0.165 M MOPs (pH 7.0) and 0.2% glucose, an inoculum of 10^3 cells/well, and incubated for 24 hr at 35°C, followed by OD600 reading by TECAN SPARK plate reader. The MIC50 of 5-FUrd was determined as the lowest dosage of 5-FUrd causing 50% inhibition of the growth by using the concentrations in the range of 0.004-2μg/mL. MICs of […] of human use (5-FC; four azoles: posaconazole, voriconazole, itraconazole, fluconazole; and three echinocandins: anidulafungin, caspofungin and micafungin) were determined by the microdilution colorimetric Sensititre YeastOne SYO-09 panel (TREK Diagnostic Systems, Cleveland, OH, USA); in accordance with the manufacturer’s instructions. MICs values were determined visually, after 24 hours of incubation, as the lowest concentration of drug that caused complete inhibition (amphotericin B) or a significant diminution (≥50% inhibition; flucytosine, azoles and echinocandins) of growth relative to that of the growth control. Table 2. Minimum inhibitory concentrations of 5-FUrd and antifungal drugs of clinical used for pathogenic and drug-resistant isolates of Candida albicans^a
# [2] = tested on: T2, Candida albicans F2014a093; conditions: F2014A093, 24 h
# T2 construct: F2014a093
# Experimental: as §1
# [3] = tested on: T3, Candida albicans F2014f090; conditions: F2014F090, 24 h
# T3 construct: F2014f090
# Experimental: as §1
# [4] = tested on: T4, Candida albicans F2015b076; conditions: F2015B076, 24 h
# T4 construct: F2015b076
# Experimental: as §1
# [5] = tested on: T5, Candida albicans F2015f019; conditions: F2015F019, 24 h
# T5 construct: F2015f019
# Experimental: as §1
# [6] = tested on: T6, Candida albicans F2016a067; conditions: F2016A067, 24 h
# T6 construct: F2016a067
# Experimental: as §1
# [7] = tested on: T7, Candida albicans F2016c087; conditions: F2016C087, 24 h
# T7 construct: F2016c087
# Experimental: as §1
# [8] = tested on: T8, Candida albicans F2016e085; conditions: F2016E085, 24 h
# T8 construct: F2016e085
# Experimental: as §1
# [9] = tested on: T9, Candida albicans F2016f024; conditions: F2016F024, 24 h
# T9 construct: F2016f024
# Experimental: as §1
# [10] = tested on: T10, Candida albicans F2016g048; conditions: F2016G048, 24 h
# T10 construct: F2016g048
# Experimental: as §1
# [11] = tested on: T11, Candida albicans F2017g023; conditions: F2017G023, 24 h
# T11 construct: F2017g023
# Experimental: as §1
# [12] = tested on: T12, Candida albicans SC5314; conditions: SC5314, 24 h
# T12 construct: SC5314
# Experimental: as §1
# [13] = read-out: Itraconazole MIC (µg/mL)
# [14] = read-out: Fluconazole MIC (µg/mL)
# [15] = read-out: Posaconazole MIC (µg/mL)
# [16] = read-out: Voriconazole MIC (µg/mL)
smiles,measurement,setting,value
"CCC(C)n1ncn(-c2ccc(N3CCN(c4ccc(OC[C@H]5CO[C@](Cn6cncn6)(c6ccc(Cl)cc6Cl)O5)cc4)CC3)cc2)c1=O (mixture of isomers) [Itraconazole, itraconazole]",MIC,[1]; [13],0.06 µg/mL
same,MIC,[2]; [13],> 16 µg/mL
same,MIC,[3]; [13],> 16 µg/mL
same,MIC,[4]; [13],0.5 µg/mL
same,MIC,[5]; [13],0.12 µg/mL
same,MIC,[6]; [13],> 16 µg/mL
same,MIC,[7]; [13],0.12 µg/mL
same,MIC,[8]; [13],0.03 µg/mL
same,MIC,[9]; [13],0.12 µg/mL
same,MIC,[10]; [13],1 µg/mL
same,MIC,[11]; [13],0.06 µg/mL
same,MIC,[12]; [13],0.06 µg/mL
"Nc1[nH]c(=O)ncc1F [5-FC, 5-flucytosine]",MIC,[1]; read-out: 5-FC MIC (µg/mL),0.5 µg/mL
same,MIC,[2]; read-out: 5-FC MIC (µg/mL),0.03 µg/mL
same,MIC,[3]; read-out: 5-FC MIC (µg/mL),0.12 µg/mL
same,MIC,[4]; read-out: 5-FC MIC (µg/mL),0.03 µg/mL
same,MIC,[5]; read-out: 5-FC MIC (µg/mL),0.03 µg/mL
same,MIC,[6]; read-out: 5-FC MIC (µg/mL),0.03 µg/mL
same,MIC,[7]; read-out: 5-FC MIC (µg/mL),> 64 µg/mL
same,MIC,[8]; read-out: 5-FC MIC (µg/mL),8 µg/mL
same,MIC,[9]; read-out: 5-FC MIC (µg/mL),0.03 µg/mL
same,MIC,[10]; read-out: 5-FC MIC (µg/mL),0.03 µg/mL
same,MIC,[11]; read-out: 5-FC MIC (µg/mL),> 64 µg/mL
same,MIC,[12]; read-out: 5-FC MIC (µg/mL),0.06 µg/mL
"OC(Cn1cncn1)(Cn1cncn1)c1ccc(F)cc1F [Fluconazole, fluconazole]",MIC,[1]; [14],1 µg/mL
same,MIC,[2]; [14],> 256 µg/mL
same,MIC,[3]; [14],2 µg/mL
same,MIC,[4]; [14],256 µg/mL
same,MIC,[5]; [14],4 µg/mL
same,MIC,[6]; [14],64 µg/mL
same,MIC,[7]; [14],0.5 µg/mL
same,MIC,[8]; [14],0.06 µg/mL
same,MIC,[9]; [14],8 µg/mL
same,MIC,[10]; [14],256 µg/mL
same,MIC,[11]; [14],0.5 µg/mL
same,MIC,[12]; [14],0.5 µg/mL
"CC[C@@H]([C@H](C)O)n1ncn(-c2ccc(N3CCN(c4ccc(OC[C@@H]5CO[C@@](Cn6cncn6)(c6ccc(F)cc6F)C5)cc4)CC3)cc2)c1=O [Posaconazole, posaconazole]",MIC,[1]; [15],0.06 µg/mL
same,MIC,[2]; [15],> 8 µg/mL
same,MIC,[3]; [15],> 8 µg/mL
same,MIC,[4]; [15],1 µg/mL
same,MIC,[5]; [15],0.12 µg/mL
same,MIC,[6]; [15],0.03 µg/mL
same,MIC,[7]; [15],0.06 µg/mL
same,MIC,[8]; [15],0.015 µg/mL
same,MIC,[9]; [15],0.25 µg/mL
same,MIC,[10]; [15],1 µg/mL
same,MIC,[11]; [15],0.03 µg/mL
same,MIC,[12]; [15],0.015 µg/mL
"C[C@@H](c1ncncc1F)[C@](O)(Cn1cncn1)c1ccc(F)cc1F [Voriconazole, voriconazole]",MIC,[1]; [16],0.015 µg/mL
same,MIC,[2]; [16],> 8 µg/mL
same,MIC,[3]; [16],0.25 µg/mL
same,MIC,[4]; [16],> 8 µg/mL
same,MIC,[5]; [16],0.06 µg/mL
same,MIC,[6]; [16],0.03 µg/mL
same,MIC,[7]; [16],0.015 µg/mL
same,MIC,[8]; [16],0.004 µg/mL
same,MIC,[9]; [16],0.5 µg/mL
same,MIC,[10]; [16],> 8 µg/mL
same,MIC,[11]; [16],0.004 µg/mL
same,MIC,[12]; [16],0.015 µg/mL
